PMC12036875, “Mitochondria-targeting natural product rhein conjugated with dichloroacetate as the dual inhibitor of glycolysis and oxidative phosphorylation to off energize cancer cells and induce ROS storm” (Theranostics, 2025)

Tests used:
4T1 cells [1] = assay: Scratch (migration) assay; type: cell-based, Mouse; conditions: 6.25 μM, 24 h
Procedure: Cellular migration is the pivotal characteristic of cancer metastasis. […] Considering the inhibition of the glycolysis pathway resulting in a decrease of lactate, we studied the migration behavior of aggressive 4T1 cells in vitro. The results of scratch assay were shown in Figure S15, after being treated with different drugs for 24 h, the wound borders of 4T1 cells gradually got closer in control, rhein, DCA and R + D groups, and the migration rates reached approximately 40%.
4T1 cells were seeded in 6-well plate and incubated for 24 h. A straight scratch line across the cell monolayer was marked at the bottom of the plate with 200 μL pipette tip. Plate was washed twice with PBS to remove the detached cells. 6.25 μM of indicated drugs were added into each well, then the wound borders of cells were imaged at 0 h, 12 h and 24 h, respectively. The migration rate was calculated as follows: migration rate (%) = (initial scratch area - final scratch area) / initial scratch area × 100%, and the scratch area was processed with the Image J derivatives Fiji software.

4T1 cells [2] = assay: Oxygen consumption rate (Seahorse); type: cell-based, Mouse; conditions: 6.25 μM, 24 h
Text: TMRE is a lipophilic cationic fluorescent probe (Ex = 550 nm, Em = 575 nm). The accumulation of TMRE within the mitochondria would reduce with the mitochondrial depolarization, resulting in a decrease in fluorescence intensity. […] The integrity of mitochondria is significant for mitochondrial bioenergy production. Given the influence of ETC, NADH dehydrogenase, ATP synthase and the decrease of Δψm, we speculated that the ATP production from OXPHOS would be hindered by Rhein-DCA conjugate. Mitochondrial bioenergetic processes of 4T1 cells was measured by oxygen consumption rate (OCR) to reflect the capability of OXPHOS.
The mitochondrial bioenergetics of 4T1 cells was investigated by Seahorse Extracellular Flux analyser. 4T1 cells were seeded in 24-well plates (Seahorse Bioscience) at a density of 2 × 10^4 cells per well and incubated for 24 h at 37 °C in 5% CO2 atmosphere. The cells were treated with indicated drugs at a concentration of 6.25 μM for 24 h. At the same time, XF sensor cartridges were hydrated overnight in a CO2-free environment. The cells were cultured in the incubator for 1 h at 37 °C without CO2 after washed with Seahorse XF assay medium. Three baseline measurements of OCR were detected with Seahorse XFe24 analyzer when the oligomycin (1.0 μM, ATP synthase complex inhibitor), FCCP (1.0 μM, ATP synthesis uncoupler […]) and the mixture of antimycin-A (1.0 μM, inhibitor of complex III) and rotenone (1.0 μM, inhibitor that prevents the transfer of electrons from the Fe-S center in complex I to ubiquinone) were sequentially injected for the detection of the oxygen consumption rate.

4T1 tumor = assay: In vivo antitumor effect, 4T1 tumor xenograft model; parameters: species or system Balb/c mice; conditions: for tumor H&E and TUNEL staining: 20 mg/kg oral; for tumor H&E and TUNEL staining / tumor growth compared with vehicle group: 24 days; for tumor growth compared with vehicle group: oral gavage daily, n = 5
Procedure: The antitumor efficiency of Rhein-DCA conjugate in vivo was explored using the female Balb/c mice with 4T1 tumor xenografts model. Briefly, 4T1-tumor bearing mice were randomly divided into vehicle, rhein, DCA, R + D and Rhein-DCA conjugate groups when the tumor became apparent (n = 5). Mice were treated daily with vehicle (2.85% anhydrous ethanol / 10% cremophor / 0.02% 0.1 M HCl / 87.15% saline) and rhein, DCA, R + D and Rhein-DCA conjugate (20 mg/kg) by oral gavage for 24 days. The body weight and tumor volume of mice were monitored and recorded every two days. […] The photograph and the weight information of all excised tumor xenografts further visually confirmed the antitumor effect of Rhein-DCA conjugate in vivo (Figure 6C-D). […] Due to suppression of tumor growth, the survival of mice treated with Rhein-DCA conjugate was improved in contrast to vehicle group (Figure S22).
Balb/c female mice (6 weeks) and Sprague-Dawley (SD) rats were purchased from Hubei provincial laboratory animal research center (Wuhan, P. R. China). All related animal experiments were approved by the Animal Welfare Committee of the Animal Experiment Center of Wuhan University. All Balb/c mice were shaved two days in advance and then subcutaneously injected with 4T1 cells (5 × 10^6 cells in 50 μL of PBS per mouse) into the back of the right leg. The 4T1 tumor bearing mice were randomly divided into five groups (5 mice per group) which containing vehicle, rhein, DCA, R + D and Rhein-DCA groups when the tumor volumes reached about 100~120 mm^3. The tumor size was calculated with the following formula:
Subsequently, mice were orally treated with vehicle (2.85% anhydrous ethanol / 10% cremophor / 0.02% HCl (0.1 M) / 87.15% saline) and rhein, DCA, R + D and Rhein-DCA (20 mg/kg, suspended in 2.85% anhydrous ethanol / 10% cremophor / 0.02% HCl (0.1 M) / 87.15% saline) every day. The body weight and tumor size changes of each mouse were measured and recorded every two days.
After 24 days, the mice were euthanized, and then tumors were excised to photographing and weighting. The tumors in each group were performed with TUNEL (green fluorescence) and H&E assay. In addition, immunohistochemical staining was conducted on the tumor tissue to determine the pPDHA1-Ser^293 protein level. Besides, immunofluorescence staining was used to detect the expression of HMGB1 protein in the tumor.

4T1 cells [3] = assay: Intracellular ATP detection; type: cell-based, Mouse; conditions: 6.25 μM, vs control
Procedure: Rhein-DCA conjugate achieved synergetic fatal energy depletion in tumor cells.
The intracellular ATP content was measured with PhosphoWorks™ Colorimetric ATP Assay Kit. Specifically, 4T1 cells and 293T cells were seeded in 12-well plates at a density of 2 × 10^5 cells per well and further cultured for 24 h at 37 °C in an atmosphere of 95% air and 5% CO2. For the control group, the culture medium was replaced with fresh medium. For the rhein, DCA, R + D, and Rhein-DCA groups, the medium was replaced with fresh medium containing the indicated drugs at a concentration of 6.25 μM. It should be noted that in the Rhein-DCA + CsA group, the cells were pretreated with CsA (2.5 μM) for 1 h at 37 °C before being cultured with Rhein-DCA. The cells were collected and suspended in 80 μL triton-X-100 (1% in PBS) to obtain cell lysates by twice freeze-thaw. Then the supernatant was collected after centrifugation at 9391 G for 10 min for subsequent analysis. Finally, 50 μL of supernatant was separately mixed evenly with 50 μL ATP working solution and the mixture was incubated for 30 min at room temperature. The absorbance at 570 nm was monitored with microplate reader.

Compound | migration rate (4T1 cells [1]) | effect on OCR / cellular OXPHOS (basal respiration, ATP production, maximal respiration) (4T1 cells [2]) | tumor H&E and TUNEL staining (4T1 tumor) | tumor growth compared with vehicle group (4T1 tumor; 20 mg/kg) | intracellular ATP amount (4T1 cells [3]) | survival of mice in contrast to vehicle group (4T1 tumor; 20 mg/kg, oral)
O=C(O)C(Cl)Cl [DCA, Dichloroacetate] | approximately 40% | minor effect | mild apoptosis and necrosis | slight inhibition | slight increase | –
O=C(O)c1cc(O)c2c(c1)C(=O)c1cccc(O)c1C2=O [Rhein, 4,5-dihydroxyanthraquinone-2-carboxylic acid] | approximately 40% | moderate effects | mild apoptosis and necrosis | slight inhibition | decrease | –
O=C(OCCOC(=O)C(Cl)Cl)c1cc(O)c2c(c1)C(=O)c1cccc(O)c1C2=O [Rhein-DCA] | 8% | complete disruption | more extensive tissue necrosis and considerable cell apoptosis | significant inhibition | significant decrease | improved
